According to paper PMC9596378, “Discovery and molecular basis of subtype-selective cyclophilin inhibitors” (Nature Chemical Biology, 2022):
“And” between values parts separate entries of the source, which are not always exact repeats. Identical values can stand only once.

Tests used:
[1] = target: T1, NKTR (Homo sapiens, UniProt P30414); experiment: Chymotrypsin coupled prolyl-isomerase assay; assay type: biochemical; conditions: for prolyl-isomerase activity (raw dose-response value): NKTR
T1 construct: NKTR (UniProtKB Entry P30414: residues 7–179); host or cells: E. coli BL21(DE3)
T1 sequence (P30414 7-179): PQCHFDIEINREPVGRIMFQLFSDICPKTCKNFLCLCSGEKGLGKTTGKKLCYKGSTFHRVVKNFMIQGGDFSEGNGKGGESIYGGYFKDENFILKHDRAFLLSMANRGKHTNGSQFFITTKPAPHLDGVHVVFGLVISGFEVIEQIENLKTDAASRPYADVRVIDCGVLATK

[2] = target: T2, CypG (Homo sapiens, UniProt Q13427); experiment: Chymotrypsin coupled prolyl-isomerase assay; assay type: biochemical; conditions: for prolyl-isomerase activity (raw dose-response value): CypG, in s^-1
T2 construct: PPIG (UniProtKB Entry Q13427: residues 1–179); His6 with thrombin site (pET28a LIC leader) (N); host or cells: E. coli BL21(DE3)
T2 sequence (Q13427 1-179): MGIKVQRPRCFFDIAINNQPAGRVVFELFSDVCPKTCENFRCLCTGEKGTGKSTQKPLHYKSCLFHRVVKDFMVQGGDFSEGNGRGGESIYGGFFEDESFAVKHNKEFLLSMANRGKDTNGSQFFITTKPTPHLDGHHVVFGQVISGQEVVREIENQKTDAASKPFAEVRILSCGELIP
Summary of the method: (§1)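 Steps: cyclophilin plus compound 5 min at 2–3 °C; α-chymotrypsin added, 5 min more; Suc-AAPF-AMC substrate in LiCl/trifluoroethanol injected and fluorescence followed 330 s. Finals: 5 nM enzyme, 25 µM chymotrypsin, 5 µM substrate, 0.25% DMSO.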

[3] = target: T3, CypC (Homo sapiens, UniProt P45877); experiment: Chymotrypsin coupled prolyl-isomerase assay; assay type: biochemical; conditions: for prolyl-isomerase activity (raw dose-response value): CypC, in s^-1
T3 construct: PPIC (UniProtKB Entry P45877: residues 24–212); host or cells: E. coli BL21(DE3)
Summary of the method: as §1

[4] = target: T4, CypE (Homo sapiens, UniProt Q9UNP9); experiment: Chymotrypsin coupled prolyl-isomerase assay; assay type: biochemical; conditions: for prolyl-isomerase activity (raw dose-response value): CypE, in s^-1
T4 construct: PPIE (UniProtKB Entry Q9UNP9: residues 131–301); host or cells: E. coli BL21(DE3)
Summary of the method: as §1

[5] = target: T5, CypA (Homo sapiens, UniProt P62937); experiment: Chymotrypsin coupled prolyl-isomerase assay; assay type: biochemical; conditions: for prolyl-isomerase activity (raw dose-response value): CypA, in s^-1
T5 construct: PPIA (UniProtKB Entry P62937: residues 1–165); made in house; host or cells: E. coli BL21(DE3)
Summary of the method: as §1

[6] = target: T6, CypH (Homo sapiens, UniProt O43447); experiment: Chymotrypsin coupled prolyl-isomerase assay; assay type: biochemical; conditions: for prolyl-isomerase activity (raw dose-response value): CypH
T6 construct: PPIH (UniProtKB Entry O43447: residues 1–177); His6 with TEV site (2BT vector leader) (N); made in house; host or cells: E. coli BL21(DE3)
Summary of the method: as §1

[7] = target: T7, CypB (Homo sapiens, UniProt P23284); experiment: biochemical; conditions: for prolyl-isomerase activity (raw dose-response value): CypB
T7 construct: PPIB (UniProtKB Entry P23284: residues 34–216); His6 with TEV site (2BT vector leader) (N); made in house; host or cells: E. coli BL21(DE3)
Summary of the method: as §1

[8] = target: Cyp40 (Homo sapiens, UniProt Q08752); experiment: Chymotrypsin coupled prolyl-isomerase assay; conditions: for prolyl-isomerase activity (raw dose-response value): in s^-1
Summary of the method: as §1

T7 sequence (P23284 34-216): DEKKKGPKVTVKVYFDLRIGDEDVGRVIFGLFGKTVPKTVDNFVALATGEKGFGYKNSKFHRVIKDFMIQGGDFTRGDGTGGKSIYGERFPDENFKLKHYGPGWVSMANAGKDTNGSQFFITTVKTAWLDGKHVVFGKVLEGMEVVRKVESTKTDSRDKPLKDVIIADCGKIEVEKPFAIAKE
T5 sequence (P62937 whole entry, the tested form may be a part): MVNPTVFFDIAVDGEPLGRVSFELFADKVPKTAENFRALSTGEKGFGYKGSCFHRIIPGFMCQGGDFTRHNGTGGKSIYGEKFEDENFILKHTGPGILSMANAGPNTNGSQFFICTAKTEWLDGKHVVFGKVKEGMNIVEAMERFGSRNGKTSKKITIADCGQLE
Cyp40, sequence (Q08752 1-183): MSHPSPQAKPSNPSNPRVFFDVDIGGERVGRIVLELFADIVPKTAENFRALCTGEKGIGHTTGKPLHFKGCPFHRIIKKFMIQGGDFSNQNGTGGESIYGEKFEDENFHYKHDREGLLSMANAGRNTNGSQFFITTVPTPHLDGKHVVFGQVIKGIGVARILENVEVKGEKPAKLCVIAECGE
T4 sequence (Q9UNP9 131-301): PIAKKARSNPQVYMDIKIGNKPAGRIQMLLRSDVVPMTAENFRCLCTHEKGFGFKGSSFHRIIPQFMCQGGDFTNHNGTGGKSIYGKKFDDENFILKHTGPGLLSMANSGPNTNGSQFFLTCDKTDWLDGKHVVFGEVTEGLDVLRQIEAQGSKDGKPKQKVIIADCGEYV
T3 sequence (P45877 24-212): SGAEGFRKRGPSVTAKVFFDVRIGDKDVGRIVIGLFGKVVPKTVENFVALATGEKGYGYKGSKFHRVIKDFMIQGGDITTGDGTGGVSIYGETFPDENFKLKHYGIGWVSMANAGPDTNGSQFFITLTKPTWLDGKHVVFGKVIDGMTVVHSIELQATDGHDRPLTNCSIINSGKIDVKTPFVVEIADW
T6 sequence (O43447 whole entry, the tested form may be a part): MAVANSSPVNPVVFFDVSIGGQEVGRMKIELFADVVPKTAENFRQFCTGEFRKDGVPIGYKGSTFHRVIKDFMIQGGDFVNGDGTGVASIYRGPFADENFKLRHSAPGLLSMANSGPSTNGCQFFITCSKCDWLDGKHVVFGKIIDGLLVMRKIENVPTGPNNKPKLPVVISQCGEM

With NCCOCCNC(=O)[C@@H]1CCNC(=O)/C=C/C(=O)N2CCC[C@](Cc3ccccc3)(C2)C(=O)N[C@@H](Cc2ccc(C(=O)c3ccccc3)cc2)C(=O)NCc2ccccc2CC(=O)N1 [Compound B1] the “prolyl-isomerase activity (raw dose-response value)” value (shortened to “prolyl-isomerase activity”) ([1]; dose 6.125 µM) was 0.03455 and 0.03286 and 0.03325, the “prolyl-isomerase activity” value ([1]; dose 12.5 µM) was 0.03629 and 0.03152 and 0.03174 and the “prolyl-isomerase activity” value ([1]; dose 25 µM) was 0.03462 and 0.03246 and 0.03111. The “prolyl-isomerase activity” value ([1]; dose 50 µM) was 0.03275 and 0.03195 and 0.02857, the “prolyl-isomerase activity” value ([1]; dose 100 µM) was 0.02401 and 0.02915 and 0.0269 and the IC50 ([1]; wild-type NKTR, read-out: Wild-Type Cyclophilin Prolyl Isomerase Inhibition IC50 Values, NKTR) was greater than 100000 nM. For the same compound, the “prolyl-isomerase activity” value ([2]; dose 6.125 µM) was 0.0775 and 0.0774 and 0.07959, the “prolyl-isomerase activity” value ([2]; dose 12.5 µM) was 0.07476 and 0.07359 and 0.07437 and the “prolyl-isomerase activity” value ([2]; dose 25 µM) was 0.06566 and 0.06625 and 0.06165. For the same compound, the “prolyl-isomerase activity” value ([2]; dose 50 µM) was 0.05369 and 0.05651 and 0.05019, the “prolyl-isomerase activity” value ([2]; dose 100 µM) was 0.03357 and 0.03853 and 0.03559 and the IC50 ([2]; wild-type CypG, read-out: Wild-Type Cyclophilin Prolyl Isomerase Inhibition IC50 Values, CypG) was 70000 nM. The “prolyl-isomerase activity” value ([3]; dose 0.00244141 µM) was 0.04561 and 0.0417 and 0.04308, the “prolyl-isomerase activity” value ([3]; dose 0.00488281 µM) was 0.04435 and 0.04111 and 0.04239 and the “prolyl-isomerase activity” value ([3]; dose 0.00976562 µM) was 0.04356 and 0.0401 and 0.04072. The “prolyl-isomerase activity” value ([3]; dose 0.0195312 µM) was 0.03963 and 0.03695 and 0.03646, the “prolyl-isomerase activity” value ([3]; dose 0.0390625 µM) was 0.035 and 0.03188 and 0.03161 and the “prolyl-isomerase activity” value ([3]; dose 0.078125 µM) was 0.02847 and 0.0253 and 0.02646. For the same compound, the “prolyl-isomerase activity” value ([3]; dose 0.15625 µM) was 0.02267 and 0.02159 and 0.02162, the “prolyl-isomerase activity” value ([3]; dose 0.3125 µM) was 0.01917 and 0.0189 and 0.01739 and the “prolyl-isomerase activity” value ([3]; dose 0.625 µM) was 0.01677 and 0.01627 and 0.01518. The “prolyl-isomerase activity” value ([3]; dose 1.25 µM) was 0.01345 and 0.01256 and 0.01367, the “prolyl-isomerase activity” value ([3]; dose 2.5 µM) was 0.009144 and 0.00999 and 0.01009 and the IC50 ([3]; wild-type CypC, read-out: Wild-Type Cyclophilin Prolyl Isomerase Inhibition IC50 Values, CypC) was 79 nM. For the same compound, the “prolyl-isomerase activity” value ([4]; dose 0.00244141 µM) was 0.1145 and 0.1032 and 0.1074, the “prolyl-isomerase activity” value ([4]; dose 0.00488281 µM) was 0.1194 and 0.1024 and 0.1063 and the “prolyl-isomerase activity” value ([4]; dose 0.00976562 µM) was 0.1019 and 0.09727 and 0.09617. For the same compound, the “prolyl-isomerase activity” value ([4]; dose 0.0195312 µM) was 0.09053 and 0.08335 and 0.08401, the “prolyl-isomerase activity” value ([4]; dose 0.0390625 µM) was 0.08777 and 0.07578 and 0.07602 and the “prolyl-isomerase activity” value ([4]; dose 0.078125 µM) was 0.06552 and 0.06127 and 0.05879. The “prolyl-isomerase activity” value ([4]; dose 0.15625 µM) was 0.05184 and 0.04744 and 0.04506, the “prolyl-isomerase activity” value ([4]; dose 0.3125 µM) was 0.04144 and 0.0397 and 0.03654 and the “prolyl-isomerase activity” value ([4]; dose 0.625 µM) was 0.03167 and 0.02791 and 0.02701. The “prolyl-isomerase activity” value ([4]; dose 1.25 µM) was 0.02174 and 0.02048 and 0.01944, the “prolyl-isomerase activity” value ([4]; dose 2.5 µM) was 0.0149 and 0.01299 and 0.01222 and the IC50 ([4]; wild-type CypE, read-out: Wild-Type Cyclophilin Prolyl Isomerase Inhibition IC50 Values, CypE) was 99 nM. The “prolyl-isomerase activity” value ([5]; dose 0.00114312 µM) was 0.07489 and 0.0818 and 0.1208, the “prolyl-isomerase activity” value ([5]; dose 0.00342935 µM) was 0.107 and 0.09816 and 0.1302 and the “prolyl-isomerase activity” value ([5]; dose 0.0102881 µM) was 0.09417 and 0.08156 and 0.09814. For the same compound, the “prolyl-isomerase activity” value ([5]; dose 0.0308642 µM) was 0.0846 and 0.08188 and 0.08679, the “prolyl-isomerase activity” value ([5]; dose 0.0925926 µM) was 0.06244 and 0.05553 and 0.05478 and the “prolyl-isomerase activity” value ([5]; dose 0.277778 µM) was 0.04513 and 0.03865 and 0.03913. For the same compound, the “prolyl-isomerase activity” value ([5]; dose 0.833333 µM) was 0.02761 and 0.02378 and 0.02924, the “prolyl-isomerase activity” value ([5]; dose 2.5 µM) was 0.01703 and 0.01931 and 0.02247 and the IC50 ([5]; wild-type CypA, read-out: Wild-Type Cyclophilin Prolyl Isomerase Inhibition IC50 Values, CypA) was 70 nM. For the same compound, the “prolyl-isomerase activity” value ([6]; dose 0.0228624 µM) was 0.05823 and 0.06198 and 0.07295, the “prolyl-isomerase activity” value ([6]; dose 0.0685871 µM) was 0.0659 and 0.06156 and 0.06865 and the “prolyl-isomerase activity” value ([6]; dose 0.205761 µM) was 0.06027 and 0.0617 and 0.06475. For the same compound, the “prolyl-isomerase activity” value ([6]; dose 0.617284 µM) was 0.05924 and 0.06278 and 0.06988, the “prolyl-isomerase activity” value ([6]; dose 1.85185 µM) was 0.05446 and 0.06201 and 0.06094 and the “prolyl-isomerase activity” value ([6]; dose 5.55556 µM) was 0.05231 and 0.05643 and 0.05555. For the same compound, the “prolyl-isomerase activity” value ([6]; dose 16.6667 µM) was 0.04539 and 0.04092 and 0.04707, the “prolyl-isomerase activity” value ([6]; dose 50 µM) was 0.02854 and 0.02769 and 0.02761 and the IC50 ([6]; wild-type CypH, read-out: Wild-Type Cyclophilin Prolyl Isomerase Inhibition IC50 Values, CypH) was 20000 nM. The “prolyl-isomerase activity” value ([7]; dose 0.00114312 µM) was 0.08676 and 0.07612 and 0.1045, the “prolyl-isomerase activity” value ([7]; dose 0.00342935 µM) was 0.09293 and 0.08942 and 0.1133 and the “prolyl-isomerase activity” value ([7]; dose 0.0102881 µM) was 0.05857 and 0.07024 and 0.08235. The “prolyl-isomerase activity” value ([7]; dose 0.0308642 µM) was 0.06507 and 0.05219 and 0.06265, the “prolyl-isomerase activity” value ([7]; dose 0.0925926 µM) was 0.05131 and 0.04637 and 0.04858 and the “prolyl-isomerase activity” value ([7]; dose 0.277778 µM) was 0.03303 and 0.03453 and 0.03517. The “prolyl-isomerase activity” value ([7]; dose 0.833333 µM) was 0.03176 and 0.0219 and 0.02127, the “prolyl-isomerase activity” value ([7]; dose 2.5 µM) was 0.01492 and 0.01697 and 0.01392 and the IC50 ([7]; wild-type CypB, read-out: Wild-Type Cyclophilin Prolyl Isomerase Inhibition IC50 Values, CypB) was 30 nM. The “prolyl-isomerase activity” value ([8]; Cyp40, dose 0.0228624 µM) was 0.05537 and 0.05091 and 0.0526, the “prolyl-isomerase activity” value ([8]; Cyp40, dose 0.0685871 µM) was 0.04831 and 0.04914 and 0.04761 and the “prolyl-isomerase activity” value ([8]; Cyp40, dose 0.205761 µM) was 0.03428 and 0.03147 and 0.03197. The “prolyl-isomerase activity” value ([8]; Cyp40, dose 0.617284 µM) was 0.02396 and 0.01982 and 0.02092, the “prolyl-isomerase activity” value ([8]; Cyp40, dose 1.85185 µM) was 0.01751 and 0.01672 and 0.01432 and the “prolyl-isomerase activity” value ([8]; Cyp40, dose 5.55556 µM) was 0.0143 and 0.01339 and 0.01386. For the same compound, the “prolyl-isomerase activity” value ([8]; Cyp40, dose 16.6667 µM) was 0.01332 and 0.01439 and 0.01303, the “prolyl-isomerase activity” value ([8]; Cyp40, dose 50 µM) was 0.01384 and 0.01317 and 0.01466 and the IC50 ([8]; Wild-Type Cyclophilin Prolyl Isomerase Inhibition IC50 Values, Cyp40, wild-type Cyp40) was 50 nM.
